SMILES strings stand for the structures. Read-outs that look alike come from different tables or passages of the source.

The results in this text go back to PMC6447767, “Simultaneous determination of the potent anti-tuberculosis regimen—Pyrazinamide, ethambutol, protionamide, clofazimine in beagle dog plasma using LC–MS/MS method coupled with 96-well format plate” (Journal of Pharmaceutical and Biomedical Analysis, 2019).

The nature of data set [1]: Pharmacokinetic study of the PZA-EMB-PTO-CFZ combination after oral administration. As to conditions: beagle, dog, plasma, in combination; for AUC: AUC0-τ, 0 to 24/48 h; for AUC / AUC(0-inf) / Cmax / half-life: n = 6; for AUC(0-inf): AUC0-∞; for Tmax: n = 6, mean ± S.D.
A short description of the next data set: in vivo. The following applies: beagle, dog, po.
Data set [2] is described as follows: Stability of analytes in Beagle dog plasma (freeze-thaw, long-term, auto-sampler, bench-top). The following applies: for %Stability recoveries (Mean ± SD), Freeze-thaw (−80 °C) / %Stability recoveries (Mean ± SD), Bench-top 4 h (4 °C) / %Stability recoveries (Mean ± SD), Long-term 40 days (−80 °C) / Stability accuracy under the test conditions: Beagle dog plasma; for %Stability recoveries (Mean ± SD), Freeze-thaw (−80 °C): 3 freeze-thaw cycles; for %Stability recoveries (Mean ± SD), Freeze-thaw (−80 °C) / %Stability recoveries (Mean ± SD), Bench-top 4 h (4 °C) / %Stability recoveries (Mean ± SD), Long-term 40 days (−80 °C) / %Stability recoveries (Mean ± SD), Auto-sampler 27 h (18 °C): n = 3; for %Stability recoveries (Mean ± SD), Auto-sampler 27 h (18 °C): processed Beagle dog plasma samples; for Stability accuracy under the test conditions: summary over all stability conditions and QC levels.

Data set [3] is described as follows: Solubility in organic solvents noted during sample preparation.
For data set [4] the following is noted: beagle, dog.
Setting [5] is: High Dose (double of standard dose).
[6] abbreviates: Low Dose (half of standard dose).
The mark [7] stands for this setting: T1/2, High Dose (double of standard dose).
Setting [8] is: T1/2, Low Dose (half of standard dose).
Where [9] appears, read: T1/2, Medium Dose (standard dose).
The mark [10] stands for this setting: Medium Dose (standard: PZA 93.2, EMB 20.7, PTO 15.5, CFZ 5.2 mg/kg).

In the case of `CC(C)/N=c1\cc2n(-c3ccc(Cl)cc3)c3ccccc3nc-2cc1Nc1ccc(Cl)cc1` [CFZ, clofazimine], the results for the AUC in data set [1] (setting [5]), in data set [1] (setting [6]) and in data set [1] (Medium Dose (standard dose)) were 0.143 ± 0.0371 µg·h/mL, 0.0175 ± 0.00967 µg·h/mL and 0.0422 ± 0.0177 µg·h/mL, respectively. The AUC(0-inf) came to 0.147 ± 0.0374 µg·h/mL in data set [1] (setting [5]), 0.0238 ± 0.0118 µg·h/mL in data set [1] (setting [6]) and 0.0531 ± 0.0221 µg·h/mL in data set [1] (Medium Dose (standard dose)). The Cmax was 21.6 ± 7.32 ng/mL in data set [1] (setting [5]), 3.69 ± 1.32 ng/mL in data set [1] (setting [6]) and 7.24 ± 2.58 ng/mL in data set [1] (Medium Dose (standard dose)). The half-life was 3.63 ± 1.49 h in data set [1] (setting [7]), 3.41 ± 1.31 h in data set [1] (setting [8]) and 4.03 ± 1.16 h in data set [1] (setting [9]). In the data set “in vivo”, the Tmax was determined as 3.17 ± 0.98 h. Moreover, the entries for the “%Stability recoveries (Mean ± SD), Freeze-thaw (−80 °C)” value in data set [2] (HQC) and in data set [2] (LQC) were 102.8 ± 2.3% and 113.2 ± 3.8%, respectively. Besides, the “%Stability recoveries (Mean ± SD), Bench-top 4 h (4 °C)” value in data set [2] (HQC) is listed as 96.1 ± 2.0%; in data set [2] (LQC), 92.5 ± 4.6%. In addition, the entries for the “%Stability recoveries (Mean ± SD), Long-term 40 days (−80 °C)” value in data set [2] (HQC) and in data set [2] (LQC) were 98.5 ± 2.3% and 91.3 ± 1.0%, respectively. Besides, the results for the “%Stability recoveries (Mean ± SD), Auto-sampler 27 h (18 °C)” value in data set [2] (HQC) and in data set [2] (LQC) were 103.3 ± 1.3% and 95.3 ± 8.6%, respectively. Besides, in data set [2], the “Stability accuracy under the test conditions” value (shortened to “Stability accuracy”) is 86.6–113.2%.
On to `CC[C@@H](CO)NCCN[C@@H](CC)CO` [EMB, ethambutol], for which the Solubility in acetonitrile entry in data set [3] is listed as “poor solubility”. In data set [1] (setting [5]), the AUC amounted to 58.7 ± 14.8 µg·h/mL, the AUC(0-inf) came to 59.2 ± 15 µg·h/mL, the Cmax came to 21100 ± 4230 ng/mL and the Tmax was found to be 0.92 ± 0.38 h. Also, in data set [1] (setting [6]), the AUC was found to be 7.88 ± 1.22 µg·h/mL, the AUC(0-inf) is 7.98 ± 1.23 µg·h/mL, the Cmax turned out to be 2930 ± 890 ng/mL and the Tmax was 1.25 ± 0.94 h. In addition, in data set [1] (Medium Dose (standard dose)), the AUC worked out at 18.5 ± 2.35 µg·h/mL, the AUC(0-inf) turned out to be 18.7 ± 2.34 µg·h/mL and the Cmax was 8720 ± 1150 ng/mL. Besides, the half-life in data set [1] (setting [7]) was 12 ± 0.62 h. Also, the half-life in data set [1] (setting [8]) was 11.8 ± 1.31 h. Also, the half-life in data set [1] (setting [9]) was 12.7 ± 1.88 h. The Tmax in data set [1] (setting [10]) stood at 0.83 ± 0.2 h. For the same molecule, in data set [2] (HQC), the “%Stability recoveries (Mean ± SD), Freeze-thaw (−80 °C)” value was 98.0 ± 2.6%; the “%Stability recoveries (Mean ± SD), Bench-top 4 h (4 °C)” value came out at 86.6 ± 0.9%; the “%Stability recoveries (Mean ± SD), Long-term 40 days (−80 °C)” value is given as 101.8 ± 0.9%; the “%Stability recoveries (Mean ± SD), Auto-sampler 27 h (18 °C)” value worked out at 94.0 ± 5.0%. Moreover, in data set [2] (LQC), the “%Stability recoveries (Mean ± SD), Freeze-thaw (−80 °C)” value amounted to 106.6 ± 6.2%; the “%Stability recoveries (Mean ± SD), Bench-top 4 h (4 °C)” value came to 100.5 ± 4.8%; the “%Stability recoveries (Mean ± SD), Long-term 40 days (−80 °C)” value is recorded as 109.3 ± 4.7%; the “%Stability recoveries (Mean ± SD), Auto-sampler 27 h (18 °C)” value was 103.2 ± 3.6%. In addition, the “Stability accuracy” value in data set [2] is on record as 86.6–113.2%.
`CCCc1cc(C(N)=S)ccn1` [PTO, protionamide]: the “Stability accuracy” value in data set [4] is recorded as 86.6–113.2%.
On to `NC(=O)c1cnccn1` [PZA, pyrazinamide], for which, in data set [1] (setting [5]), the AUC is 1970 ± 298 µg·h/mL, the AUC(0-inf) amounted to 1970 ± 298 µg·h/mL, the Cmax came out at 241000 ± 19200 ng/mL and the Tmax stood at 1.33 ± 0.26 h. Moreover, in data set [1] (setting [6]), the AUC stood at 50.2 ± 7.6 µg·h/mL, the AUC(0-inf) was found to be 50.2 ± 7.6 µg·h/mL, the Cmax was 57000 ± 11900 ng/mL and the Tmax stood at 1.13 ± 0.54 h. In data set [1] (Medium Dose (standard dose)), the AUC was 1080 ± 187 µg·h/mL, the AUC(0-inf) was determined as 1080 ± 188 µg·h/mL and the Cmax was 125000 ± 6700 ng/mL. In data set [1] (setting [7]), the half-life was 2.62 ± 0.1 h. The half-life in data set [1] (setting [8]) is 2.82 ± 0.08 h. Besides, in data set [1] (setting [9]), the half-life is 2.7 ± 0.21 h. Also, in data set [1] (setting [10]), the Tmax worked out at 1.04 ± 0.6 h. Further, in data set [2] (HQC), the “%Stability recoveries (Mean ± SD), Freeze-thaw (−80 °C)” value turned out to be 98.6 ± 0.7%; the “%Stability recoveries (Mean ± SD), Bench-top 4 h (4 °C)” value was 95.4 ± 2.5%; the “%Stability recoveries (Mean ± SD), Long-term 40 days (−80 °C)” value amounted to 88.6 ± 0.9%; the “%Stability recoveries (Mean ± SD), Auto-sampler 27 h (18 °C)” value was found to be 102.5 ± 3.3%. Also, in data set [2] (LQC), the “%Stability recoveries (Mean ± SD), Freeze-thaw (−80 °C)” value came to 106.3 ± 3.0%; the “%Stability recoveries (Mean ± SD), Bench-top 4 h (4 °C)” value was determined as 95.2 ± 3.4%; the “%Stability recoveries (Mean ± SD), Long-term 40 days (−80 °C)” value was 97.9 ± 2.0%; the “%Stability recoveries (Mean ± SD), Auto-sampler 27 h (18 °C)” value is recorded as 101.1 ± 1.6%. Also, the “Stability accuracy” value in data set [2] is reported as 86.6–113.2%.

In general, AUC refers to the area under the concentration-time curve, a measure of exposure. As usually defined, the AUC(0-inf) is the area under the concentration-time curve extrapolated to infinity. Usually Cmax stands for the maximum level reached in the sampled fluid or tissue. The half-life is how long it takes for the measured level to halve. The Tmax is the time at which the peak concentration occurs.
